Legend:
[1] = microsomal stability, mouse microsomes; format: in vitro ADME; conditions: pooled murine microsomes, pH 7.4; 60 min incubation with mouse microsomes, NADPH, 37 °C
Procedure: (§1) The human and murine pooled microsomes employed were purchased from Tebu-Xenotech (Barcelona, Spain). The compound was incubated at 37 °C with the microsomes in a 50 mM phosphate buffer (pH = 7.4) containing 3 mM MgCl2, 1 mM NADP, 10 mM glucose-6-phosphate and 1 U/mL glucose-6-phosphate-dehydrogenase. Samples (75 µL) were taken from each well at 0, 10, 20, 40 and 60 min and transferred to a plate containing 4 °C 75 µL acetonitrile and 30 µL of 0.5% formic acid in water were added for improving the chromatographic conditions. The plate was centrifuged (46000 g, 30 min) and supernatants were taken and analyzed in a UPLC-MS/MS (Xevo-TQD, Waters) by employing a BEH C18 column and an isocratic gradient of 0.1% formic acid in water: 0.1% formic acid acetonitrile (60:40). The metabolic stability of the compounds was calculated from the logarithm of the remaining compounds at each of the time points studied.

human sEH = molecular target: T1, human sEH (Homo sapiens, UniProt P34913); experiment: fluorescent-based sEH inhibition assay, recombinant human sEH; format: biochemical; conditions: baculovirus expressed recombinant human sEH, average of three replicates
T1 construct: made in house; host or cells: baculovirus expression system (insect cells implied)
T1 sequence (P34913 1-555): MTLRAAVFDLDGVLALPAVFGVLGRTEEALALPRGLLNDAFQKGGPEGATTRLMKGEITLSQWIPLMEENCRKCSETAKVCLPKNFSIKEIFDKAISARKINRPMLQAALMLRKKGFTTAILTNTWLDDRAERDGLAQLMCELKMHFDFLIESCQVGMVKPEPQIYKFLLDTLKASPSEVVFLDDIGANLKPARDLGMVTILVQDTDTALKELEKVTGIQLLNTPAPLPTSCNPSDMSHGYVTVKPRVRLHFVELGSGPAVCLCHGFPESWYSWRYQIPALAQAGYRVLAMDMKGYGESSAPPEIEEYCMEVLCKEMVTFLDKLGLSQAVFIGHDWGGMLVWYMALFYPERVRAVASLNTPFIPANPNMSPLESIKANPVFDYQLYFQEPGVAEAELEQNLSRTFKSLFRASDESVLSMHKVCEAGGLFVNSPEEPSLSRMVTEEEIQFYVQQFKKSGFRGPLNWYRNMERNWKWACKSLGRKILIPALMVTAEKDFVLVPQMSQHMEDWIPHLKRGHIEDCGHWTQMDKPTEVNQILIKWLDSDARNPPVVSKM
Procedure: (§2) The potency of all the new compounds as inhibitors of the human and murine sEH was tested using a previously reported sensitive fluorescent-based assay using baculovirus expressed recombinant human and mouse sEH [28].

murine sEH = molecular target: T2, murine sEH (Mus musculus, UniProt P34914); experiment: fluorescent-based sEH inhibition assay, recombinant mouse sEH; format: biochemical; conditions: baculovirus expressed recombinant mouse sEH, average of three replicates
T2 construct: made in house; host or cells: baculovirus expression system (insect cells implied)
T2 sequence (P34914 1-554): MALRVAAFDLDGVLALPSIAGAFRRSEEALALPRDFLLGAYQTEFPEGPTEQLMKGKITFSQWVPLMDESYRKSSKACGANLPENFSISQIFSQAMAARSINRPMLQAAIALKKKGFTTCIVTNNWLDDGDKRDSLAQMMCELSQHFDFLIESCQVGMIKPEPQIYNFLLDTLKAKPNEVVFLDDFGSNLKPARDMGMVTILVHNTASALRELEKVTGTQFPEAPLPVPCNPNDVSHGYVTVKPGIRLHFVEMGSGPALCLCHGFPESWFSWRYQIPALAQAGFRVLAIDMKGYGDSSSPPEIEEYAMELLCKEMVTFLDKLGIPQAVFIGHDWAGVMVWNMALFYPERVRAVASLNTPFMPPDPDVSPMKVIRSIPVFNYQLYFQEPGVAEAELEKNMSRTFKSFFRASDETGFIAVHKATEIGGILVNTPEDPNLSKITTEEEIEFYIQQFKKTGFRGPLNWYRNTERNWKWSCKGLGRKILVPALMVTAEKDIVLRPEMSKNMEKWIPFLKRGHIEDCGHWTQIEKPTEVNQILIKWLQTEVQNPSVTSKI
Procedure: as §2

[2] = microsomal stability, human microsomes; format: in vitro ADME; conditions: pooled human microsomes, pH 7.4; 60 min incubation with human microsomes, NADPH, 37 °C
Procedure: as §1

[3] = design: method as in PMID 33945278; conditions: 60 min incubation with human microsomes, NADPH, 37 °C; cited from earlier work
[4] = design: method as in PMID 33945278; conditions: cited from earlier work; for Microsomal Stability Mouse % Remaining at 1 h: 60 min incubation with mouse microsomes, NADPH, 37 °C
[5] = system: microglial BV2 cells activated with LPS; experiment: nitric oxide generation (nitrite, Griess) in LPS-activated BV2 microglial cells; format: cell-based; conditions: compound at 100 µM, LPS, 24 h, percentage of LPS value
Procedure: Inflammatory changes were determined by the measure of nitric oxide generation, as the endpoint of iNOS activation, in microglial BV2 cells. BV2 cells (HyperCLDB, Banca Biologica e Cell Factory, ICLC ATL 03001) were grown in RPMI 1640 medium, supplemented with L-glutamine 2 mM, gentamycin 50 µM and 10% FBS. For experiments, cells were seeded in 96-well plates at 2 × 10^5 cells/mL, 100 µL/well. […] After 1 h of incubation, the cells were treated with the pro-inflammatory chemical LPS (0.1 μg/mL or 1 μg/mL; strain E. coli […], Sigma-Aldrich, L-2654, batch #120M4028) and further incubated for 24 h. TPPU at 100 µM was also assayed as a reference anti-inflammatory compound. DMSO 0.1% was used as vehicle. Cells were maintained at 37 °C in a humidified incubator with 5% CO2 throughout the procedures. Nitric oxide released to the culture medium was measured by the colorimetric Griess reaction that detects nitrite (NO2^–), a stable reaction product of nitric oxide and molecular oxygen. Briefly, 50 µL of conditioned medium were incubated with 50 µL of Griess reagent for 10 min at room temperature. Optical density was measured at 540 nm. Nitrite concentration was determined from a sodium nitrite standard curve. Results were normalized by cell protein content in the well and expressed as a percentage of the average maximal values given by the pro-inflammatory agent (LPS 1 µg/mL). Each treatment was performed in 3–5 wells and the whole experiment was repeated 3–4 times in cultures of different cell passage. Data were analyzed by ANOVA followed by Tukey’s multiple comparisons test.

SMILES | remaining at 1 h [1] [%] | IC50 (human sEH) [nM] | IC50 (murine sEH) [nM] | remaining at 1 h [2] [%] | melting point [°C] | Microsomal Stability Human % Remaining at 1 h [3] [%] | Microsomal Stability Mouse % Remaining at 1 h [4] [%] | nitric oxide release induced by LPS, reduced to [5] | microsomal stability (% remaining at 1 h) mouse ([4]; Figure 2 legend) [%]
CC(=O)N1CCC(CC(=O)NC23CC4CC(C)(CC(C2)c2ccccc24)C3)CC1 [6a, 2-(1-Acetylpiperidin-4-yl)-N-(9-methyl-5,6,8,9,10,11-hexahydro-7H-5,9:7,11-dimethanobenzo[9]annulen-7-yl)acetamide] | 0 | 34.5 | 0.4 | 0.3 |  |  |  |  | 
CC(C)S(=O)(=O)N1CCC(CC(=O)NC23CC4CC(C)(CC(C2)c2ccccc24)C3)CC1 [6b, 2-[1-(Isopropylsulfonyl)piperidin-4-yl]-N-(9-methyl-5,6,8,9,10,11-hexahydro-7H-5,9:7,11-dimethanobenzo[9]annulen-7-yl)acetamide] | 0 | 30.2 | 0.4 | 0 |  |  |  |  | 
CC(C)S(=O)(=O)N1CCC(CC(=O)NC23CC4CC(F)(CC(C2)c2ccccc24)C3)CC1 [6c, N-(9-Fluoro-5,6,8,9,10,11-hexahydro-7H-5,9:7,11-dimethanobenzo[9]annulen-7-yl)-2-(1-(isopropylsulfonyl)piperidin-4-yl)acetamide] | 5.1 | 1.6 | 0.4 | 5.5 | 192 to 193 |  |  |  | 
CC(C)S(=O)(=O)N1CCC(CC(=O)NC23CC4CC(Cl)(CC(C2)c2ccccc24)C3)CC1 [6d, N-(9-Chloro-5,6,8,9,10,11-hexahydro-7H-5,9:7,11-dimethanobenzo[9]annulen-7-yl)-2-(1-(isopropylsulfonyl)piperidin-4-yl)acetamide] | 1.4 | 1 | 0.4 | 7 | 163 to 164 |  |  |  | 
CC(C)S(=O)(=O)N1CCC(CC(=O)NC23CC4CC(C2)c2ccccc2C(C4)C3)CC1 [6e, N-(5,6,8,9,10,11-Hexahydro-7H-5,9:7,11-dimethanobenzo[9]annulen-7-yl)-2-(1-(isopropylsulfonyl)piperidin-4-yl)acetamide] | 0.2 | 2.8 | 0.5 | 0.6 | 136 to 137 |  |  |  | 
[2H]C12CC3CC(NC(=O)CC4CCN(S(=O)(=O)C(C)C)CC4)(CC(C1)c1ccccc13)C2 [6f, N-(5,6,8,9,10,11-Hexahydro-7H-5,9:7,11-dimethanobenzo[9]annulen-7-yl-9-d)-2-(1-(isopropylsulfonyl)piperidin-4-yl)acetamide] | 0.5 | 2.4 | 0.4 | 1.3 | 138 to 139 |  |  |  | 
CC12CC3CC(NC(=O)CC4CCN(Cc5ccccc5)CC4)(CC(C1)c1ccccc13)C2 [6g, 2-(1-Benzylpiperidin-4-yl)-N-(9-methyl-5,6,8,9,10,11-hexahydro-7H-5,9:7,11-dimethanobenzo[9]annulen-7-yl)acetamide] | 0.1 | 37.5 | 3.3 | 0.1 |  |  |  |  | 
O=C(CC1CCN(Cc2ccccc2)CC1)NC12CC3CC(F)(CC(C1)c1ccccc13)C2 [6h, 2-(1-Benzylpiperidin-4-yl)-N-(9-fluoro-5,6,8,9,10,11-hexahydro-7H-5,9:7,11-dimethanobenzo[9]annulen-7-yl)acetamide] | 0.1 | 21.4 | 12.9 | 0.3 | 164 to 165 |  |  |  | 
CC12CC3CC(NC(=O)N[C@H]4CC[C@H](Oc5ccc(C(=O)O)cc5)CC4)(CC(C1)c1ccccc13)C2 [11a] |  |  |  |  |  | 70 | 10 |  | 
O=C(NC12CC3CC(F)(CC(C1)c1ccccc13)C2)N[C@H]1CC[C@H](Oc2ccc(C(=O)O)cc2)CC1 [11b] |  |  |  |  |  | 77 | 36 |  | 
O=C(NC12CC3CC(Cl)(CC(C1)c1ccccc13)C2)N[C@H]1CC[C@H](Oc2ccc(C(=O)O)cc2)CC1 [11c] |  |  |  |  |  | 89 | 60 |  | 
CCC(=O)N1CCC(NC(=O)Nc2ccc(OC(F)(F)F)cc2)CC1 [TPPU, reference compound] |  |  |  |  |  |  |  | approximately 50% | 
CC(=O)N1CCC(NC(=O)NC23CC4CC(C)(CC(C2)c2ccccc24)C3)CC1 [compound 1, reference compound] | 1 |  |  | 1 |  |  |  |  | 0.5

The next lines start with results.

remaining at 1 h [1] [%] | IC50 (human sEH) [nM] | IC50 (murine sEH) [nM] | remaining at 1 h [2] [%] | melting point [°C] | SMILES | Microsomal Stability Human % Remaining at 1 h [3] [%] | Microsomal Stability Mouse % Remaining at 1 h [4] [%] | nitric oxide release induced by LPS, reduced to [5] | microsomal stability (% remaining at 1 h) mouse ([4]; Figure 2 legend) [%]
0.1 | 0.6 | 0.7 | 0.1 | 229 to 230 | CC(=O)c1ccc(N2CCC(CC(=O)NC34CC5CC(F)(CC(C3)c3ccccc35)C4)CC2)cc1 [10a, 2-(1-(4-Acetylphenyl)piperidin-4-yl)-N-(9-fluoro-5,6,8,9,10,11-hexahydro-7H-5,9:7,11-dimethanobenzo[9]annulen-7-yl)acetamide] |  |  |  | 
0.1 | 3.4 | 0.4 | 0 | 180 to 181 | N#Cc1ccc(N2CCC(CC(=O)NC34CC5CC(F)(CC(C3)c3ccccc35)C4)CC2)cc1 [10b, 2-(1-(4-Cyanophenyl)piperidin-4-yl)-N-(9-fluoro-5,6,8,9,10,11-hexahydro-7H-5,9:7,11-dimethanobenzo[9]annulen-7-yl)acetamide] |  |  |  | 
2 | 0.4 | 0.2 | 11 | 190 to 191 | O=C(CC1CCN(c2ccc(C(=O)O)cc2C2CC2)CC1)NC12CC3CC(F)(CC(C1)c1ccccc13)C2 [10d, 3-Cyclopropyl-4-(4-(2-((9-fluoro-5,6,8,9,10,11-hexahydro-7H-5,9:7,11-dimethanobenzo[9]annulen-7-yl)amino)-2-oxoethyl)piperidin-1-yl)benzoic Acid] |  |  |  | 
6 | 1.7 | 0.7 | 52 |  | O=C(CC1CCN(c2ccc(C(=O)O)cc2)CC1)NC12CC3CC(Cl)(CC(C1)c1ccccc13)C2 [10e] |  |  |  | 

— paper PMC8703317, “2-(Piperidin-4-yl)acetamides as Potent Inhibitors of Soluble Epoxide Hydrolase with Anti-Inflammatory Activity” (Pharmaceuticals, 2021)
